Assay results: PubChem BioAssay AID720587 (Broad Institute, 2013)
Calls of active or inactive are those of the source.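 The calls were made as follows: active = fitted curve reaches -35% activity change at a concentration below twice the top valid dose tested; inactive = the rest, including effects opposite to the expected direction.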

Experiment: A673 Ewing sarcoma viability loss – cell-based, CellTiter-Glo luminescence, cherry-pick retest, confirmation (AID 720587)
Details: A673 Ewing sarcoma viability, CellTiter-Glo ATP luminescence, 72 h; at 8 µM (top of the series)

Row | SMILES | activity change, negative = cytotoxicity
1 | COc1ccc(NS(=O)(=O)c2cc(NC(=O)CNC(=O)c3cccc(OC)c3)ccc2C)cc1 | 12.2% (inactive)

Same assay, conditions: A673 Ewing sarcoma viability, CellTiter-Glo ATP luminescence, 72 h; at 23.5 µM (top of the series)

Row | SMILES | activity change, negative = cytotoxicity
2 | COC(=O)C[C@@H]1CC[C@@H]2[C@H](COc3ccc(NC(=O)c4cccc(Cl)c4)cc3C(=O)N2C)O1 | -7.39% (inactive)

Same assay, conditions: A673 Ewing sarcoma viability, CellTiter-Glo ATP luminescence, 72 h; at 26 µM (top of the series)

Row | SMILES | activity change, negative = cytotoxicity
3 | CN(C)Cc1c(O)ccc2c1O/C(=C\C=C\c1ccccc1)C2=O | -7.01% (inactive)
4 | CC(C)c1ccccc1NC(=O)COC(=O)CCN1C(=O)/C(=C\C=C\c2ccccc2)SC1=S | -0.202% (inactive)
5 | COc1ccc(/C=C2\SC(=S)N(CCCC(=O)Nc3ccc(O)cc3)C2=O)cc1 | -14.2% (inactive)
6 | C[C@@H]1CN([C@H](C)CO)C(=O)c2cc(C#CCc3ccccc3)cnc2O[C@@H]1CN(C)Cc1cccc(F)c1 | -13.4% (inactive)
7 | Cc1cc(C)cc(OCC(=O)OCC(=O)Nc2cc(S(=O)(=O)N3CCOCC3)ccc2C)c1 | -2.43% (inactive)
8 | Nc1ccc2oc(-c3cc(Br)ccc3Cl)nc2c1 | 2.05% (inactive)
9 | CCOc1ccc(C(c2c(NC(=O)c3ccccc3)sc(C)c2C)N2CCN(CCO)CC2)cc1 (stereo unspecified) | 9.4% (inactive)
10 | C/C(=N\OCc1cccc(C(=O)O)c1)c1ccc(Cl)cc1 | -3.02% (inactive)
11 | C[C@@H]1CN([C@H](C)CO)C(=O)c2cc(NS(=O)(=O)c3ccc(Cl)cc3)ccc2O[C@@H]1CN(C)Cc1ccc(Cl)c(Cl)c1 | -17.2% (inactive)
12 | CC(C)(C)c1ccc(Oc2ccc(NC(=O)C3CC=CCC3C(=O)O)cc2)cc1 (stereo unspecified) | 6.05% (inactive)
13 | O=C(CCCCl)Nc1nc(-c2ccc3c(c2)OCCO3)cs1 | 10.2% (inactive)
14 | CCCCOc1ccc(NC(=O)C(=O)NCCCn2ccnc2)cc1 | -2.77% (inactive)
15 | O=C(O)c1cccc(N/N=C/c2ccc(OC(F)(F)F)cc2)c1 | 10.4% (inactive)
16 | Cc1cc(-c2nc3cc(F)ccc3s2)ccc1N | -13.6% (inactive)
17 | S=C(NCCN1CCOCC1)Nc1ccccc1Cl | 3% (inactive)
18 | COc1cc(OC)cc(-c2cc3nc(C)c(CCC(=O)O)c(C)n3n2)c1 | 0.866% (inactive)
19 | COCc1cc(C)nc2sc(C(=O)NCCO)c(-n3cccc3)c12 | 13.2% (inactive)
20 | Nc1ncn([C@@H]2O[C@H](CO)[C@@H](O)[C@H]2O)c(=O)n1 | -13.8% (inactive)
21 | O=C(O)c1ccc(N/N=C/c2c(F)cccc2Cl)cc1 | -4.19% (inactive)
22 | Cc1ccc2oc(/N=C(\N)NC(=O)C(C)(C)C)nc2c1 | -3.45% (inactive)
23 | C=CC[n+]1c(-c2ccc(C)cc2)csc1Nc1ccc(NC(C)=O)cc1 | -9.93% (inactive)
24 | COc1ccc(Cl)cc1S(=O)(=O)Nc1ccc2c(c1)n(C)c(=O)n2C | -1.58% (inactive)
25 | CC(C)(C)c1ccc(/C=N/Nc2ccc(C(=O)O)cc2)cc1 | -3.68% (inactive)
26 | COc1ccc(C=NNc2nc3ccccc3s2)cc1 | 3.07% (inactive)
27 | O=c1c2ccccc2oc2ccc(C#CC3(O)CCCCC3)cc12 | 1.29% (inactive)
28 | O=C1C(=O)N(CCS(=O)(=O)c2ccccc2)c2ccc(Cl)cc21 | -5.89% (inactive)
29 | CCc1ccc(/C=C2\SC(=S)N(CCCC(=O)NC3=NCCS3)C2=O)cc1 | 1.62% (inactive)

Row | SMILES | activity change, negative = cytotoxicity
30 | Cc1cc(-c2nc3ccccc3s2)ccc1N | -21.8% (inactive)
31 | O=C1Nc2ccccc2C1=Nc1ccccc1-c1ccccc1 | -7.56% (inactive)
32 | C[C@@H]1CN([C@H](C)CO)C(=O)c2cc(NC(=O)CCCCCC(=O)Nc3ccccc3N)ccc2O[C@H]1CN(C)S(=O)(=O)c1ccc(Cl)cc1 | -2.24% (inactive)
33 | C[C@@H]1CN([C@@H](C)CO)C(=O)c2cccc(NC(=O)Nc3ccccc3)c2O[C@@H]1CN(C)Cc1ccc(-c2ccccc2)cc1 | -1.33% (inactive)
34 | c1cncc(-c2ccc([C@@H]3[C@H]4CNC[C@@H]3N4CC3CCOCC3)cc2)c1 | 9.2% (inactive)
35 | O=C1C(=O)N(CCS(=O)(=O)c2ccccc2)c2ccccc21 | 12.4% (inactive)
36 | Nc1ccc(Oc2ccccc2-c2ccccc2)cc1 | -6.58% (inactive)
37 | C[C@@H]1CN([C@H](C)CO)S(=O)(=O)c2ccc(C#CC3CC3)cc2O[C@@H]1CN(C)Cc1ccccc1F | -19.6% (inactive)
38 | CCOc1ccc(-c2noc(CCC(=O)O)n2)cc1 | 6.68% (inactive)
39 | CCc1ccc(/C=C2\SC(=S)N(CCCC(=O)Nc3cc(C)on3)C2=O)cc1 | -3.29% (inactive)
40 | CC(=O)N1CCCC(c2cc(C(=O)Nc3ccccc3)no2)C1 (stereo unspecified) | 9.56% (inactive)
41 | CN(C)c1ccc(N=Nc2ccc(C(=O)O)cc2)cc1 | 1.5% (inactive)
42 | COc1ccc(/C=C2\SC(=O)N(CCCC(=O)Nc3cc(Cl)ccc3C(=O)O)C2=O)cc1 | 1.72% (inactive)
43 | COc1ccc(S(=O)(=O)N=Nc2c(O)[nH]c3ccccc23)cc1 | 8.74% (inactive)
44 | O=C(COC(=O)c1ccc[nH]c1=O)Nc1ccc(N2CCCCC2)cc1 | 0.213% (inactive)
45 | CCOc1ccc(-c2cc(CCCC(=O)N3CCN(c4ccc(OC)cc4)CC3)no2)cc1 | 9.05% (inactive)
46 | CC(=O)c1ccc(NC(=O)c2noc3c2CCC3)cc1 | -3.66% (inactive)
47 | Nc1ccc(-c2cc3ccccc3c(=O)o2)cc1 | -2.08% (inactive)
48 | COc1ccc(C(=O)Nc2cccc(C(=O)N/N=C/c3ccc(OC)cc3OC)c2)cc1 | -1.59% (inactive)
49 | COc1ccc(-c2sc3ccccc3c2-c2ccc(OCCN3CCCCC3)cc2)cc1 | -3.21% (inactive)
50 | COc1cc(C(c2c(C)[nH][nH]c2=O)c2c(C)[nH][nH]c2=O)ccc1OC(C)C | -4.73% (inactive)
51 | O=C(O)c1ccc(N/N=C/c2cc(Br)cs2)cc1 | -5.62% (inactive)
52 | CC1(CCc2ccccc2)NC(=O)N(CC(=O)N2CC(=O)Nc3ccccc32)C1=O (stereo unspecified) | 7.32% (inactive)
53 | O=C1CCC2S/C(=C/Nc3ccc(C(F)(F)F)cc3)C(=O)N12 (stereo unspecified) | -2.74% (inactive)
54 | O=C(Cc1nn[nH]n1)c1ccccc1O | 0.33% (inactive)
55 | O=C1CCCC2=C1C(c1ccccn1)Nc1ccc(C(=O)c3ccccc3)cc1N2 (stereo unspecified) | 3.59% (inactive)
56 | Cc1[nH]c(=S)sc1Cc1ccc(Cl)c(Cl)c1 | 5.33% (inactive)

Row | SMILES | activity change, negative = cytotoxicity
57 | O=C1C(=O)N(Cc2cccs2)c2ccccc21 | -4.57% (inactive)
58 | CCOC(=O)Cc1csc(NC(=S)NC(=O)c2ccc(C)cc2)n1 | -1.19% (inactive)
59 | Cc1ccc(/C=C/C(=O)N2CCN(S(=O)(=O)c3c(C)c(C)cc(C)c3C)CC2)o1 | 4.87% (inactive)
60 | Cc1cc(C(=O)CN2C(=O)c3ccccc3S2(=O)=O)c(C)n1C(C)C | 21.4% (inactive)
61 | O=C(O)CN1C(=O)/C(=C\c2ccccc2OCc2ccc(Cl)cc2Cl)SC1=S | -0.632% (inactive)
62 | Cc1ccsc1/C=N/Nc1ccc(C(=O)O)cc1 | 5.43% (inactive)
63 | O=C(Nc1ccc(OC(=O)N2CCCCC2)cc1)N1CCOCC1 | 1.28% (inactive)
64 | COc1ccccc1/C=C1\SC(=S)N(CCC(=O)Nc2cc(C)on2)C1=O | 6.59% (inactive)
65 | CCOC(=O)Cc1ccc(NC(=O)c2ccccc2Br)cc1 | -0.788% (inactive)
66 | COc1ccc(N=C(NN)c2ccc3ccccc3n2)cc1 | -15.8% (inactive)
67 | CCn1c(C)cc(C(=O)CN2C(=O)c3ccccc3S2(=O)=O)c1C | 9.42% (inactive)
68 | COC(=O)C[C@@H]1CC[C@@H]2[C@H](COc3ccc(NC(=O)c4cc(F)cc(F)c4)cc3C(=O)N2C)O1 | -0.378% (inactive)
69 | C[C@H](CO)N1C[C@H](C)[C@H](CN(C)Cc2ccc(C(F)(F)F)cc2)Oc2c(NS(=O)(=O)c3ccc(Cl)cc3)cccc2C1=O | 4.37% (inactive)
70 | Cc1cc(C(=O)NNC(=O)c2ccc(S(=O)(=O)N(C)C)cc2)c(C)o1 | 1% (inactive)
71 | Cc1nc2cc(-c3ccc(Cl)cc3)nn2c(C)c1CCC(=O)NC(C)c1ccc2c(c1)OCCO2 (stereo unspecified) | -6% (inactive)
72 | COC(=O)C[C@@H]1CC[C@@H]2[C@@H](COc3ccc(NC(=O)Cc4cccs4)cc3C(=O)N2C)O1 | -23.4% (inactive)
73 | O=C(C[C@@H]1C[C@H]2c3cc(NC(=O)CC4CC4)ccc3O[C@H]2[C@H](CO)O1)NCc1ccccc1F | -23.9% (inactive)
74 | COc1ccc(Nc2ncnc3ccc(Br)cc23)c(OC)c1 | -5.17% (inactive)
75 | OCCN1CCN(C(=S)c2ccc(-c3ccccc3)cc2)CC1 | 6.18% (inactive)
76 | C=CCn1c(O)c(N=Nc2ccccc2)c2ccccc21 | 7.11% (inactive)
77 | CC(=O)c1ccc(N=Nc2ccc(C)cc2)cc1 | 2.05% (inactive)
78 | COc1ccc(CCC(C)NCC2CCCCC2)cc1 (stereo unspecified) | 2.42% (inactive)
79 | CCc1ccc(Cn2ncc3c(C(=O)O)cc(C)nc32)cc1 | 17.3% (inactive)
80 | C[C@@H]1CCCCO[C@@H](CN(C)C(=O)Cc2ccccc2)[C@@H](C)CN([C@@H](C)CO)C(=O)c2cc(NS(=O)(=O)c3ccc(F)cc3)ccc2O1 | 7.89% (inactive)
81 | CO[C@H]1CN(C)C(=O)c2cc(NC(=O)NC(C)C)ccc2OC[C@H](C)N(Cc2ccc(-c3ccccn3)cc2)C[C@@H]1C | -4.3% (inactive)
